Results from patent US10357514B2, “Treatment of cancer using anti-CD19 Chimeric Antigen Receptor” (The Trustees of the University of Pennsylvania, priority 2014, dated 2019).

Tests used:
[1] = test system: Mino; experiment: MTT assay, ibrutinib inhibition of proliferation; type: cell-based; settings: Homo sapiens
[2] = test system: MCL; settings: cited from earlier work
[3] = test system: CART19 T cells; settings: 0.1, 0.5, 1 and 5 μM ibrutinib
[4] = test system: RL cells; experiment: Ibrutinib sensitivity by reduction of bioluminescence (BLI); type: cell-based, human; settings: 0.1 nM to 10 μM
[5] = test system: PBMCs; experiment: CAR19 lentiviral transduction of ibrutinib-treated normal donor PBMCs; type: cell-based, human; settings: PBMCs incubated with 5 μM ibrutinib for 30 minutes
Method: Normal donor PBMCs were obtained using apheresis as described herein, for example in Example 6. […] The cells were then transduced with lentiviral constructs containing CAR19 to generate CART19 T cells using the methods described herein, for example, in Example 4. The number of CART19 T cells generated from ibrutinib-treated PBMCs FACs analysis was performed to determine the number of CART19 T cells generated from ibrutinib-treated PBMCs compared to untreated PBMCs.

[6] = test system: Jeko-1; experiment: MTT assay, ibrutinib inhibition of proliferation; type: cell-based; settings: Homo sapiens
[7] = test system: MCL-RL cells; experiment: MCL-RL xenograft model in NSG mice; type: in vivo
Method: NOD-SCID-γ chain−/− (NSG) mice originally obtained from Jackson Laboratories were purchased from the Stem Cell and Xenograft Core of the University of Pennsylvania. All experiments were performed on protocols approved by the Institutional Animal Care and Use Committee (IACUC). Schematics of the utilized xenograft models are discussed herein. Cells (MCL cell lines or T cells) were injected in 200 ul of PBS at the indicated concentration into the tail veins of mice. Bioluminescent imaging was performed using a Xenogen IVIS-200 Spectrum camera and analyzed with LivingImage software v. 4.3.1 (Caliper LifeSciencies). Animals were euthanized at the end of the experiment or when they met pre-specified endpoints according to the IACUC protocols.
Schematics such as those shown in FIGS. 20, 55, and 5A were used in this example. […] 1×10^6 cells from RL (MCL-3), JEKO-1 (MCL-4), and NALM6 (MCL-5) cell lines are injected in NSG mice (20 mice for each experiment). […] At Day 7, Day 14, Day 21, and Day 28, the bioluminescence is imaged to monitor tumor size. […] Survival of the mice is also monitored. […] 2×10^6 MCL-RL cells are injected into NSG mice. […] At days 14, 21, 28, and 35 (after injection of MCL-RL cells), the bioluminescence is imaged to monitor tumor size.
Mean bioluminescence, representing tumor growth, was assessed at various timepoints.

[8] = test system: Nalm/6 cells; experiment: Nalm/6 tumor model in NSG mice; type: in vivo
Method: CART19 function was assessed in an in vivo mouse model. Nalm/6 cells (human acute lymphoblastic leukemia cell line) were implanted into NSG mice, and the mice were monitored daily for at least 50 days. […] CART19 was administered on day 7 or day 9, or mice were left untreated (control). […] For example, the cells were stained with anti-human CD19 antibody to determine the percent of human CD19+(Nalm/6) cells in the blood of the tumor-bearing NSG mice.

[9] = test system: JEKO-1 cells; experiment: Ibrutinib sensitivity by reduction of bioluminescence (BLI); type: cell-based, human; settings: 0.1 nM to 10 μM
[10] = test system: RL; experiment: MTT assay, ibrutinib inhibition of proliferation; type: cell-based; settings: Homo sapiens
[11] = mice; cited from earlier work
[12] = test system: luciferase-expressing mantle cell line (RL luc); experiment: Lymphoma xenograft model, tumor burden by mean bioluminescence; type: in vivo, NSG mice; settings: 200 ng/mouse i.p. three times weekly from Day 85, mice with suboptimal response to CART19
Excerpt: Tumor size was monitored by measuring the mean bioluminescence of the engrafted tumors over more than 80 days. […] When comparing the tumor burden of mice that received IL-7 treatment to control, before and after IL-7 treatment, tumor reduction in tumor burden was only seen in the mice that had received IL-7 treatment (FIG. 49C).

Molecule: C=CC(=O)N1CCC[C@@H](n2nc(-c3ccc(Oc4ccccc4)cc3)c3c(N)ncnc32)C1 [ibrutinib, 1-[(3R)-3-[4-Amino-3-(4-phenoxyphenyl)-1H-pyrazolo[3,4-d]pyrimidin-1-yl]piperidin-1-yl]prop-2-en-1-one]
- IC50 [1]: ≤ 10 µM
- patients who do not respond [2]: about 30%
- CD3/CD28-stimulated CART19 cell proliferation [3]: did not affect CART19 cell proliferation
- sensitivity to ibrutinib (reduction of bioluminescence) [4]: sensitive
- transduced PBMCs expressing CAR19 [5]: 15%
- IC50 [6]: ≤ 10 µM
- median overall survival ([7]; 25 mg/kg/day): 81 days
- median overall survival ([7]; 125 mg/kg/day): 100 days
- tumor growth (mean bioluminescence) ([7]; ibrutinib alone, 25 and 250 mg/kg/day): dose-related sensitivity
- circulating and nodal/organ MCL cells ([7]; one week after beginning ibrutinib alone): more circulating MCL cells and fewer nodal/organ MCL cells
- tumor burden (bioluminescence) ([7]; treatment from Day 7, CART19 2×10^6 cells, ibrutinib 125 mg/kg/day): modestly delayed tumor growth at early time points
- Nalm/6 cells circulating in peripheral blood ([8]; daily oral gavage from day 7, CART19 on day 7 or 9): does not impair CART19 function in clearing Nalm/6 cells
- survival after injection of Nalm/6 cells ([8]; ibrutinib without CART19 T cells): ≤ 30 days
- sensitivity to ibrutinib (reduction of bioluminescence) [9]: resistant
- IC50 [10]: 10 nM

Molecule: CO[C@H]1C[C@@H]2CC[C@@H](C)[C@@](O)(O2)C(=O)C(=O)N2CCCC[C@H]2C(=O)O[C@H]([C@H](C)C[C@@H]2CC[C@@H](O)[C@H](OC)C2)CC(=O)[C@H](C)/C=C(\C)[C@@H](O)[C@@H](OC)C(=O)[C@H](C)C[C@H](C)/C=C/C=C/C=C/1C [rapamycin]
- lifespan [11]: extended lifespan

B1: IL-7: exogenous recombinant human IL-7 (protein, UniProt P13232 26-177, looked up)
Interleukin-7: DCDIEGKDGKQYESVLMVSIDQLLDSMKEIGSNCLNNEFNFFKRHICDANKEGMFLFRAARKLRQFLKMNSTGDFDLHLLKVSEGTTILLNCTGQVKGRKPAALGEAQPTKSLEENKSLKEQKKLNDLCFLKRLLQEIKTCWNKILMGTKEH
- reduction in tumor burden [12]: 1-3 log
